US8592408B2, “Fused aminodihydrothiazine derivatives” (Eisai R&D Management Co., Ltd., priority 2011, dated 2013)
Where two headings read alike, the source gives them in different places.

How the values were obtained:
[1] = tested on: Salmonella typhimurium tester strains TA98, TA100, TA1535 and TA1537 and Escherichia coli tester strain WP2 uv; assay: Ames test; assay type: cell-based; details: absence and presence of rat liver S9, up to highest dose tested 5000 ug/plate
Experimental: The title compound was subjected to an Ames test (Salmonella typhimurium tester strains TA98, TA100, TA1535 and TA1537 and Escherichia coli tester strain WP2 uv. Mutation Research 1975, 31, 347; Mutation Research 1976, 38, 3; Proc. Nat. Acad. Sci. USA 1976, 73, 950; Proc. Nat. Acad. Sci. USA 1975, 72, 5135) in the absence and presence of rat liver S9. The compound was negative up to the highest dose/concentration tested (5000 ug/plate).

[2] = Rat in vivo CNS penetration (plasma, brain and CSF concentrations); details: 10 mg/kg p.o.; for Kp at 2 h / Kp at 4 h / Kp at 6 h / Kp at 8 h: male, Sprague Dawley, po, rat
Experimental: Rat In Vivo CNS Penetration
Male Sprague Dawley rats were acquired from Charles River UK Ltd. (Margate, UK) and housed according to UK Home Office guidelines. Drugs were made up to the appropriate concentrations in 0.5% methyl cellulose. Animals were dosed orally (2 mL/kg) by gavage at the doses outlined in Tables 2 to 4 below.
At the time points post-dosing, specified in Tables 2 to 4 below the animals were administered an i.p. injection of sodium pentobarbitone (approximately 330 mg/kg for terminal anaesthesia).
Using a guillotine, the animals were decapitated and trunk blood collected into 15 ml Falcon tubes containing 100 IU heparin. Blood was vortexed followed by centrifugation at 6000 rpm, 4° C. for 5 minutes. Plasma was collected for DMPK and ELISA assays and stored at −80° C. until use. Brains were dissected out and divided along the midline, weighed and stored at −80° C. until further use.
Method for Analysis of Plasma, Brain and CSF Samples
Test compound was prepared as a 1 mg free base/mL solution in DMSO, vortexed and sonicated for 5 min. The 1 mg/mL DMSO solution was diluted to 10 and 30 μg/mL acetonitrile stocks, by adding 10 μL to 990 μL acetonitrile and 30 μL to 970 μL acetonitrile, respectively. The 10 and 30 μg/mL acetonitrile stocks were then serially diluted 1:9 (v/v) (100 μL stock into 900 μL acetonitrile) to give the following solutions: 0.003, 0.01, 0.03, 0.1, 0.3, 1, 3, 10 and 30 μg/mL acetonitrile.
Control male Sprague Dawley rat plasma and the study plasma samples were stored at −80° C. until the day of analysis when they were thawed at room temperature. Control plasma was centrifuged (2,000 g for 10 min) and aliquoted (90 μL) into eppendorf tubes for preparation of standards and blank samples. Study samples were previously aliquoted (100 μL) into eppendorf tubes immediately following collection of the plasma.
Double blank and blank samples were prepared by adding 10 μL of acetonitrile to 90 μL of blank plasma.
Control male Sprague Dawley rat brain and the study brain samples were weighed after collection and stored at −80° C. until the day of analysis when they were thawed at room temperature. Once thawed brains were diluted with water (4 mL per gram of tissue) and homogenised using a mechanical homogeniser. An aliquot (100 μL) of each study sample was taken into Micronics tubes ready for analysis and sufficient aliquots (90 μL) of control brain homogenate prepared for preparation of standards and blanks.
Double blank and blank samples were prepared by adding 10 μL of acetonitrile to 90 μL of blank brain homogenate.
Each plasma and brain homogenate sample, standard and blank (100 μL) was extracted with an aliquot (300 μL) of acetonitrile (containing 0.1% formic acid and 100 ng/mL of an appropriate internal standard). Double blanks were extracted with an aliquot (300 μL) of acetonitrile containing 0.1% formic acid). All samples, standards and blanks were then vortex mixed and centrifuged (2000 g for 15 min). An aliquot (50 μL) of the resulting supernatant was then taken into a 2 mL 96-deep well plate and diluted with acetonitrile:water (50:50 v/v) (150 μL) ready for analysis by a specific LC-MS/MS method.
Control male Sprague Dawley rat CSF and the study CSF samples were stored at −80° C. until the day of analysis when they were thawed at room temperature. An aliquot (50 μL) of each study sample was taken into Micronics tubes ready for analysis and sufficient aliquots (45 μL) of control CSF prepared for preparation of standards and blanks.
Double blank and blank samples were prepared by adding 5 μL of acetonitrile to 45 μL of blank CSF.
Each CSF sample, standard and blank (50 μL) was extracted with an aliquot (150 μL) of acetonitrile (containing 0.1% formic acid and 100 ng/mL of an appropriate internal standard). Double blanks were extracted with an aliquot (150 μL) of acetonitrile containing 0.1% formic acid.

[3] = biological target: T1, P-glycoprotein (MDR1-MDCK cells) (Homo sapiens, UniProt P08183); assay: MDR1-MDCK permeability (bi-directional) Pgp efflux assay; assay type: in vitro ADME; details: MDR1-MDCK, pH 7.4/pH 7.4, 10 μM, 60 min; ER=Papp(B-A)/Papp(A-B)
T1 construct: assay run at Cyprotex Discovery Ltd; host or cells: MDCK (canine kidney epithelial) cells stably transfected with MDR1
T1 sequence (P08183 whole entry): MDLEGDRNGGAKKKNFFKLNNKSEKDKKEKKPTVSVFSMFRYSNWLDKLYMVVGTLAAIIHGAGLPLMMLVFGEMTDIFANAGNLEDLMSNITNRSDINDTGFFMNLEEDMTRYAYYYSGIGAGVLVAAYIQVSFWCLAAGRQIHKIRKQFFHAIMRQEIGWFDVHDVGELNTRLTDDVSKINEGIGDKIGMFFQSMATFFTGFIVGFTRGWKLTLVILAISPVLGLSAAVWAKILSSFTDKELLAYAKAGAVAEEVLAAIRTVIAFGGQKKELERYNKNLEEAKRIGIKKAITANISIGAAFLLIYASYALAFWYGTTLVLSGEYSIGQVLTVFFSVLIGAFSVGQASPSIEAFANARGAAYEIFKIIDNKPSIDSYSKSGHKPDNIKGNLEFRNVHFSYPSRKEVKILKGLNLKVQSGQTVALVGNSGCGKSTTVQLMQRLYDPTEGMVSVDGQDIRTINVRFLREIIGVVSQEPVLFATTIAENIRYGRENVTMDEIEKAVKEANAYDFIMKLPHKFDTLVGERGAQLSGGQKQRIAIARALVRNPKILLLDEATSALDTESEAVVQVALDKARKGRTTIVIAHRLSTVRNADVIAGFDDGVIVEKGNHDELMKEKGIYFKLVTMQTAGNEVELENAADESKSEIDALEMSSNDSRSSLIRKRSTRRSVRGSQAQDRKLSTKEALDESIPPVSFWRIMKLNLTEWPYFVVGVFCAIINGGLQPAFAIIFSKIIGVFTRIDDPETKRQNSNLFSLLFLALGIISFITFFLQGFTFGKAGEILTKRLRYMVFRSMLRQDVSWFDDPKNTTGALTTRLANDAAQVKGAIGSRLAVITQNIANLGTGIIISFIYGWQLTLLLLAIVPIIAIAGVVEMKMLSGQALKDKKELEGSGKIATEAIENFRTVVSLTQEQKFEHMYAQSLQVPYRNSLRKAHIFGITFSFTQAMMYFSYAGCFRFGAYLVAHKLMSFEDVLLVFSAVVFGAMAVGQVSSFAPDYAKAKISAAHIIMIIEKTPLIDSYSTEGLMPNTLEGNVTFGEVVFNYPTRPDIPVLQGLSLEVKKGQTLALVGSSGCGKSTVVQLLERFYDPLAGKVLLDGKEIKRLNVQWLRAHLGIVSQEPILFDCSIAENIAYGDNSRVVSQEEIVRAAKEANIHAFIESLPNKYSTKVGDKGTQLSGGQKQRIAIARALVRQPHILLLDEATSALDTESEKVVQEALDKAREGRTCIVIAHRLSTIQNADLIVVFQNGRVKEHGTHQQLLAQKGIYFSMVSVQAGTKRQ
Experimental: (§1) Test compound permeability was assessed in duplicate.
(§2) Test and control compounds were quantified by LC-MS/MS cassette analysis using a 5-point calibration with appropriate dilution of the samples. Cyprotex generic analytical conditions were used. The starting concentration (C0) was determined from the dosing solution and the experimental recovery calculated from C0 and both apical and basolateral compartment concentrations.
(§3) Lucifer yellow permeation is low if monolayers have not been damaged.
(§4) Where dQ/dt is the rate of permeation of the drug across the cells, C0 is the donor compartment concentration at time zero and A is the area of the cell monolayer.

[4] = tested on: Aβ peptide production in rat primary neuronal culture; assay: Quantification of Aβ peptide in culture of neurons from rat fetus brain (Aβ ELISA); assay type: cell-based; details: Primary cortical neuron, Aβ species (ABx-40 1 day / ABx-42 3 days) not given
[5] = Plasma protein binding (PPB), rapid equilibrium dialysis; assay type: in vitro ADME; details: male, Sprague Dawley, rat, RED 6 h 37° C.
Experimental: (§5) Method For Determination of Plasma Protein Binding (PPB) and Brain Tissue Binding (BTB)
(§6) On the morning of dialysis, control male Sprague Dawley rat plasma and brain, previously stored at −80° C. were thawed at room temperature. Plasma was checked for pH and if necessary adjusted to 7.4 with 1M HCl. Plasma was then centrifuged (2000 g for 10 min) and the brains diluted with 2 mL of Phosphate Buffered Saline (pH 7.4) per gram of tissue and homogenised using a mechanical homogeniser.
(§7) The Rapid Equilibrium Dialysis (RED) plate (Thermo Scientific) was prepared in accordance with the manufacturers guidelines i.e. the base plate was soaked in 20% (v/v) ethanol for 10 min and then rinsed twice with deionised water before being allowed to dry. […] The plate was then covered with an adhesive and incubated in air at 37° C. for 6 h with 130 rpm agitation.
(§8) Following the 6 h incubation, the seal was removed and an aliquot (50 μL) taken from the PBS chambers and dispensed into Micronics tubes. […]
(§9) Samples were vortex mixed and an aliquot (300 μL) of acetonitrile containing 0.1% formic acid and 100 ng/mL of an appropriate internal standard added. Samples were then mixed and centrifuged (2000 g for 15 min) and an aliquot of the supernatant (100 μL) removed into a 96-deep well plate and diluted with an equal volume of water ready for analysis by LC-MS/MS.

[6] = Effects on QTc interval in anaesthetised guinea pigs; assay type: in vivo; details: anaesthetised guinea pig, i.v. infusion 2.0, 6.0, 20 mg/kg/10 min, up to the highest dose/concentration tested
Experimental: Assessment of Effects on QTc Interval in Guinea Pigs
Male Dunkin-Hartley guinea pigs were weighed and anaesthetised using 4% isoflurane in carbogen. […] Xylazine at 2 mg/kg i.m. was administered into the hind limb as a bradycardic agent to enable detection of QTc prolongation by the software.
The carotid artery and jugular vein were cannulated with lines containing heparinised saline and a 3-lead ECG connected and monitored using LabChart Pro software. Animals were allowed to stabilise for 30 minutes after the completion of the surgical procedure, before the initiation of an i.v. vehicle (5% DMSO/90% MilliQ/5% 0.1N HCl) infusion from time zero (infusion rate=0.2 ml/kg/min). At 10 mins, an arterial blood sample was collected for PK analysis (150u1; all collection syringes were heparinised). At 12 mins, drug infusion was started @ 2.0 mg/kg/10 min i.v. The dose was increased to 6.0 mg/kg/10 min, then 20 mg/kg/10 min i.v., with a 10 minutes infusion period and two minutes blood sampling at each dose. After the final dose, a blood sample was taken and a second vehicle infusion initiated. Eight minutes later a terminal blood sample was collected for plasma PK analysis and the animal killed by a Schedule 1 method.
QTc (Bazett's) changes were analysed using LabChart Pro software.

[7] = Effects on QTc interval in anaesthetised beagle dogs; assay type: in vivo; details: anaesthetised beagle dog, infusion 1, 3, 10 mg/kg/10 min, up to the highest dose/concentration tested
Experimental: Assessment of Effects on QTc Interval in Beagle Dogs
Male beagle dogs were weighed and injected with sodium thiopental for induction of anesthesia.
The carotid artery and saphenous vein were cannulated with lines containing heparinised saline and a LII ECG connected and monitored using polygraph system. Animals were allowed to stabilise for 30 minutes before the infusion of compound solution and the infusion via cannula was started from time zero with 1 mg/kg/10 min. The dose was increased to 3 mg/kg/10 min, then 10 mg/kg/10 min. An arterial blood sample was collected after every dosing for PK analysis.

[8] = Brain tissue binding (BTB), rapid equilibrium dialysis; assay type: in vitro ADME; details: rat brain homogenate, RED 6 h 37° C.
Experimental: as §5, §6, §7, §8, §9

P-glycoprotein (MDR1) = biological target: T2, P-glycoprotein (MDR1) (Homo sapiens, UniProt P08183); assay: MDR1-MDCK permeability (bi-directional) Pgp efflux assay; assay type: in vitro ADME; details: dog, MDCK-MDR1, pH 7.4; read-out: Pgp ER
T2 construct: assay run at Cyprotex Discovery Ltd; host or cells: MDCK (canine kidney epithelial) cells stably transfected with MDR1
T2 sequence (P08183 whole entry): as above
Experimental: as §1, §2, §3, §4

[9] = TASTPM mice, cited from earlier work; for brain concentration: oral dose of 250 mg/kg
Aβ40 = details: TASTPM mice, cited from earlier work
BACE-1 = BACE-1 (Homo sapiens, UniProt P56817); details: cited from earlier work
Sequence of BACE-1 (P56817 46-501, species assumed): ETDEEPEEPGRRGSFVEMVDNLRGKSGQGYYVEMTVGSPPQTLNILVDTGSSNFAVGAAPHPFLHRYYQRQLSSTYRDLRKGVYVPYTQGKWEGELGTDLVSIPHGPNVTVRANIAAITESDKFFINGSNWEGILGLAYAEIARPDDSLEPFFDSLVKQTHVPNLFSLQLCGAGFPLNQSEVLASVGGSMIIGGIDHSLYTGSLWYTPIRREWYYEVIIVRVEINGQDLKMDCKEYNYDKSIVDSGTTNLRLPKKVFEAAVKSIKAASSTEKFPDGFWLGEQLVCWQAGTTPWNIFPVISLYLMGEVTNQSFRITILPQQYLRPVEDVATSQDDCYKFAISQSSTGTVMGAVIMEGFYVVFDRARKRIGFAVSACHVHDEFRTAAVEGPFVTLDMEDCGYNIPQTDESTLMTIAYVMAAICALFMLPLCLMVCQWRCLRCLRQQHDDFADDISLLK

[10] = CSF / plasma (unbound), read-out: CSF:Plu
[11] = brain (total) / plasma (total), read-out: Brtot:Pltot
[12] = brain (unbound) / plasma (unbound), read-out: Bru:Plu

Q: With `NC1=N[C@@]2(c3cc(N)ccc3F)CO[C@H](C(F)(F)F)[C@H]2CS1` [1-(25), (4aS,5S,7aS)-7a-(5-amino-2-fluorophenyl)-5-(trifluoromethyl)-4a,5,7,7a-tetrahydro-4H-furo[3,4-d][1,3]thiazin-2-amine] as the molecule, how does the Ames test result [1] read?
A: Its Ames test result is “negative”.

Q: Which results are given for `NC1=N[C@@]2(c3cc(NC(=O)c4cnc(CF)cn4)ccc3F)CO[C@H](C(F)(F)F)[C@H]2CS1` [Example 8, N-(3-((4aS,5S,7aS)-2-amino-5-(trifluoromethyl)-4a,5,7,7a-tetrahydro-4H-furo[3,4-d][1,3]thiazin-7a-yl)-4-fluorophenyl)-5-(fluoromethyl)pyrazine-2-carboxamide]?
A: Kp at 2 h [2, 10]: 0.5; Kp at 4 h [2, 10]: 0.6; Kp at 6 h [2, 10]: 0.5; Kp at 2 h [2, 11]: 3.3; Kp at 4 h [2, 11]: 3.9; Kp at 6 h [2, 11]: 3.7; Kp at 8 h ([2]; brain (total) / plasma (total), 8 h, read-out: Brtot:Pltot): 3.8; Kp at 2 h [2, 12]: 0.7; Kp at 4 h [2, 12]: 0.8; Kp at 6 h [2, 12]: 0.8; Kp at 8 h ([2]; brain (unbound) / plasma (unbound), 8 h, read-out: Bru:Plu): 0.8; [CSF] ([2]; rat CSF, 8 h): ^3n.q.; Pgp ER [3]: 1.7; IC50 [4]: 6 nM; fraction unbound at 6 h, 1 μg/mL ([5]; pH 7.4, fraction unbound, rat plasma, mean of n = 3, read-out: Rat Plasma fu): 0.104; fraction unbound at 6 h, 1 μg/mL ([5]; pH 7.4, rat plasma, mean of n = 3, read-out: Rat PPB (%) (converted)): 0.104; QTc (Bazett's) change [6]: unchanged; QTc change [7]: unchanged; fraction unbound at 6 h, 1 μg/mL ([8]; male, Sprague Dawley, pH 7.4, fraction unbound, mean of n = 3, read-out: Rat Brain fu): 0.022; Rat BTB (%) ([8]; 1 μg/mL, mean of n = 3): 97.8%

Q: Which efflux ratio at 60 min, 10 μM (P-glycoprotein (MDR1)) does the source give for `COCc1cnc(C(=O)Nc2ccc(F)c([C@]34CO[C@H](C(F)(F)F)[C@H]3CSC(N)=N4)c2)cn1` [Example 13, N-(3-((4aS,5S,7aS)-2-amino-5-(trifluoromethyl)-4a,5,7,7a-tetrahydro-4H-furo[3,4-d][1,3]thiazin-7a-yl)-4-fluorophenyl)-5-(methoxymethyl)pyrazine-2-carboxamide] here?
A: The efflux ratio at 60 min, 10 μM was 1.7.

Q: And the IC50 [4]?
A: Its IC50 is 44 nM.

Q: With `CCNc1cc(C(=O)N[C@@H](Cc2ccccc2)[C@H](O)CNCc2cccc(C(F)(F)F)c2)c(F)c(N2CCCCS2(=O)=O)c1` [GSK188909] as the molecule, how does the “increase in CNS penetration by co-administration of a Pgp inhibitor” value ([9]; 250 mg/kg oral, with vs without GF120918) read?
A: Its value is about 9 fold.

Q: And the brain concentration ([9]; Pgp inhibitor GF120918 dosed 5 hours before)?
A: The brain concentration was 5.43 µM.

Q: And the brain concentration ([9]; no Pgp inhibitor)?
A: The brain concentration was 0.62 µM.

Q: And the “effect on brain Aβ40 levels” value (Aβ40; 250 mg/kg oral dose, absence of a Pgp inhibitor)?
A: Its value is “did not have any effect”.

Q: What about the “reduction in brain Aβ40 levels relative to vehicle treated mice” value (Aβ40; 250 mg/kg oral, Pgp inhibitor co-administered 5 hours prior) of the same molecule?
A: Its value is 68%.

Q: And the IC50 (BACE-1)?
A: Its IC50 is 5 nM.
